# Experimental data taken from article PMC7394103 (Frontiers in Pharmacology, 2020).
# Assays:
# [1] = test system: CII-specific Abs in CIA mice; test: Anti-CII antibody ELISA in serum of CIA mice; format: in vivo; details: 30 mg/kg i.p. daily, day 8 to 42, vs saline
# Description: Serum samples from mice with CIA were collected on day 44 after CII injection. Samples of the diluted sera were added to microtiter plates (Greiner Bio-One, Monroe, NC, USA) coated with 2 μg/ml ELISA grade mouse CII (Chondrex). Horseradish peroxidase-conjugated goat […] total IgG, IgG1, IgG2a, IgG2b, and IgG3 (Southern Biotechnology Associates, Birmingham, AL, USA) were used for detection. The samples were developed with 2,2’-azino-bis(3-ethylbenzothiazoline-6-sulphonic acid (Moss Inc., Pasadena, MD, USA), and absorbance was monitored at 415 nm using a SpectraMax Plus microplate reader. Endpoint titer represents reciprocal log 2 for the serum dilution with absorbance ≥ 0.1 above negative control.
# MMP-1 secretion by HUVEC = test: IL-1β-induced MMP-1 secretion by HUVEC (ELISA); format: cell-based; details: Homo sapiens, 30 min compound, then 5 ng/ml IL-1β, 24 h
# Description: (§1) FLS, HUVEC, SW982, and THP-1 cells were plated in 96 well plates (10^4 to 10^5 cells/well) for 48 h before treatment. At 2 days post-confluency, the cells were serum-starved and washed twice (with the exception of THP-1 cell, which were not washed) with FBS-free medium prior to the addition of test compounds. The cells were incubated in the presence or absence of test compounds or DMSO (vehicle control) for 30 min at 37°C in a 5% CO2 atmosphere, IL-1β (5 ng/ml) was added, and the cells were incubated for an additional 24 h. Culture supernatants were collected and stored at –80°C. The levels of MMP-1 and MMP-3 were determined in culture supernatants using commercially available ELISA kits according to the manufacturer’s instructions (R&D System, Minneapolis, MN, USA). IL-6 levels were also determined in the supernatants using a human IL-6 ELISA kit (BD Biosciences, San Jose, CA, USA).
# [2] = test system: MMP-1 secretion by SW982 cells; test: IL-1β-induced MMP-1 secretion by SW982 cells (ELISA); format: cell-based; details: Homo sapiens, 30 min compound, then 5 ng/ml IL-1β, 24 h, read-out: SW-982 MMP-1 IC50
# Description: as §1
# [3] = test system: IL-6 secretion by synovial SW982 cells; test: IL-1β-induced IL-6 secretion by SW982 cells (ELISA); format: cell-based, human; details: for IC50: Homo sapiens, SW982, 30 min compound, then 5 ng/ml IL-1β, 24 h, read-out: SW982 IL-6 IC50
# Description: as §1, with “The cells were incubated in the presence or absence of test compounds or DMSO (vehicle control) for 30 min at 37°C in a 5% CO2 atmosphere, IL-1β (5 ng/ml) was added, and the cells were incubated for an additional 24 h.” left out
# [4] = test system: IL-6 secretion by monocytic THP-1 cells; test: IL-1β-induced IL-6 secretion by THP-1 cells (ELISA); format: cell-based; details: Homo sapiens, 30 min compound, then 5 ng/ml IL-1β, 24 h
# Description: as §1
# MMP-1 secretion by FLS = test: IL-1β-induced MMP-1 secretion by FLS (ELISA); format: cell-based; details: Homo sapiens; 30 min compound, then 5 ng/ml IL-1β, 24 h
# Excerpt: (§2) This study was approved by the Institutional Review Board of University of California, San Diego School of Medicine (La Jolla, CA, USA). Informed consent was obtained from all participants. Anonymous synovial tissue samples were obtained from six patients with RA at the time of total joint replacement (5 females, 1 male; age range, 44–72 years), as previously described ([Alvaro-Gracia et al., 1990]). The diagnosis of RA conformed to American College of Rheumatology 1987 revised criteria ([Arnett et al., 1988]). The synovium was minced and incubated with collagenase type VIII (0.5 mg/ml) (Sigma-Aldrich) in serum-free RPMI-1640 (Life Technologies, Grand Island, NY, USA) for 2 h at 37°C, filtered, extensively washed, and cultured in DMEM (Life Technologies) supplemented with 10% FBS (Gemini Bio Products, Calabasas, CA, USA), penicillin, streptomycin, gentamicin, and glutamine in a humidified 5% CO2 atmosphere. […]
# (§3) FLS, HUVEC, SW982, and THP-1 cells were plated in 96 well plates (10^4 to 10^5 cells/well) for 48 h before treatment. […] The levels of MMP-1 and MMP-3 were determined in culture supernatants using commercially available ELISA kits according to the manufacturer’s instructions (R&D System, Minneapolis, MN, USA). IL-6 levels were also determined in the supernatants using a human IL-6 ELISA kit (BD Biosciences, San Jose, CA, USA).
# IL-6 secretion by FLS = test: IL-1β-induced IL-6 secretion by FLS (ELISA); format: cell-based; details: Homo sapiens; 30 min compound, then 5 ng/ml IL-1β, 24 h
# Excerpt: as §2, §3
# LN cells from CIA mice = test: CII-induced cytokine production by LN cells from treated CIA mice; format: in vivo; details: 30 mg/kg; for IL-10 production by LN cells / proinflammatory cytokines (IL-1β, IL-5, IL-6, IL-17A, TNF, GM-CSF, RANKL) by LN cells: cells cultured 72 h with CII, vs saline
# Description: At the end of the study (day 44), we isolated the axillary, inguinal, and popliteal LN and purified mononuclear cells from the LN. These cells were cultured in 6-well plates (5 × 10^6 cells/ml) without or with 50 μg/ml CII for 3 days in RPMI-1640 medium supplemented with 10% of fetal bovine serum (FBS) (Invitrogen, Carlsbad, CA, USA), 2 mM l-glutamine, 100 U/ml penicillin, 100 μg/ml streptomycin, 1 mM sodium pyruvate, and 0.1 mM nonessential amino acids ([Kochetkova et al., 2008]). The levels of cytokines, including tumor necrosis factor (TNF), granulocyte-macrophage colony-stimulating factor (GM-CSF), IL-1β, IL-5, IL-6, IL-10, IL-17A, and receptor activator of nuclear factor-κB ligand (RANKL) were measured in LN culture supernatants using ELISA kits (BD Biosciences, San Jose, CA, USA) for mouse cytokines.
# [5] = Cytotoxicity assay (CellTiter-Glo), FLS; format: cell-based, human; details: both sexes, human; concentrations up to 50 µM; read-out: Cytotoxic effect FLS IC50
# Excerpt: (§4) This study was approved by the Institutional Review Board of University of California, San Diego School of Medicine (La Jolla, CA, USA). Informed consent was obtained from all participants. Anonymous synovial tissue samples were obtained from six patients with RA at the time of total joint replacement (5 females, 1 male; age range, 44–72 years), as previously described ([Alvaro-Gracia et al., 1990]). The diagnosis of RA conformed to American College of Rheumatology 1987 revised criteria ([Arnett et al., 1988]). The synovium was minced and incubated with collagenase type VIII (0.5 mg/ml) (Sigma-Aldrich) in serum-free RPMI-1640 (Life Technologies, Grand Island, NY, USA) for 2 h at 37°C, filtered, extensively washed, and cultured in DMEM (Life Technologies) supplemented with 10% FBS (Gemini Bio Products, Calabasas, CA, USA), penicillin, streptomycin, gentamicin, and glutamine in a humidified 5% CO2 atmosphere. Cells were allowed to adhere overnight, nonadherent cells were removed, and adherent fibroblast-like synoviocytes (FLS) were split at 1:3 when 70%–80% confluent. FLS were used from passages 3 through 9, during which time they are a homogeneous population of cells (<1% CD11b positive, <1% phagocytic, and <1% FcγRII and FcγRIII receptor positive).
# (§5) Cytotoxicity was analyzed using a CellTiter-Glo Luminescent Cell Viability Assay Kit (Promega), according to the manufacturer’s protocol. […] Following treatment, substrate was added to the cells, and the samples were analyzed with a Fluoroscan Ascent FL microplate reader.
# FLS = test: Cytotoxicity assay (CellTiter-Glo), FLS; format: cell-based, human; details: during the 90-min period of the c-Jun assay
# Excerpt: as §4, §5
# IL-6 secretion by HUVEC = test: IL-1β-induced IL-6 secretion by HUVEC (ELISA); format: cell-based; details: Homo sapiens, 30 min compound, then 5 ng/ml IL-1β, 24 h
# Description: as §1
SMILES,"titers of CII-specific IgG, IgG1, IgG2a, IgG2b, IgG3 [1]",IC50 (MMP-1 secretion by HUVEC) [nM],IC50 [2] [nM],"overall inhibition of IL-6 secretion in combination with SP600125 ([3]; 5 µM TRYP plus SP600125, compared to SP600125 alone)",IC50 [3] [nM],IC50 [4] [nM],IC50 (MMP-1 secretion by FLS) [nM],IC50 (IL-6 secretion by FLS) [nM],IL-10 production by LN cells (LN cells from CIA mice),"proinflammatory cytokines (IL-1β, IL-5, IL-6, IL-17A, TNF, GM-CSF, RANKL) by LN cells (LN cells from CIA mice)",IC50 [5] [nM],FLS viability (FLS),IC50 (IL-6 secretion by HUVEC) [nM],"IL-17A, GM-CSF and RANKL production by LN cells (LN cells from CIA mice; compared to mice treated with TRYP)"
"O=C1c2ccccc2-n2c1nc1ccccc1c2=O [TRYP, indolo[2,1-b]quinazolin-6,12-dione]",significantly lower,3400 ± 1100,7800 ± 2000,acted synergistically,2500 ± 1100,9300 ± 2700,1200 ± 400,14800 ± 1800,higher,significantly reduced,16700 ± 1600,neither TRYP nor TRYP-Ox affected FLS viability,6400 ± 2700,–
"O=c1c2ccccc2nc2n1-c1ccccc1/C2=N/O [TRYP-Ox, tryptanthrin-6-oxime]",significantly lower,2900 ± 100,2600 ± 800,–,400 ± 200,300 ± 120,700 ± 100,7400 ± 1200,higher,significantly reduced,> 50000,neither TRYP nor TRYP-Ox affected FLS viability,900 ± 300,significantly lower
